Converted amounts (≈) assume the structure as drawn. Read-outs that look alike come from different tables or passages of the source.
Assays:
[1] = test system: LOVO cells; test: LOVO CTG proliferation assay (120 h) (CRC, G13D); assay type: cell-based; details: Homo sapiens, CTG 120 h
Procedure, shortened: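 IC50 comes from a four-parameter fit of CellTiter-Glo viability, expressed as RLU relative to DMSO wells. Compound exposure lasted 120 h in LOVO cells seeded the day before at 1000 cells/well in DMEM with 10% fetal calf serum.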

[2] = test system: AsPC-1 cells; test: AsPC-1 CTG proliferation assay (120 h) (pancreatic cancer, G12D); assay type: cell-based; details: Homo sapiens, ASPC1
Procedure, shortened: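 CellTiter-Glo luminescence, normalised to DMSO wells, measured viability after 120 h compound exposure. Cells were AsPC-1 pancreatic cancer (G12D) plated at 2000 per well in RPMI/10% FCS the day before dosing. IC50 derived by four-parameter regression.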

[3] = test system: KRAS G12C-dependent Ba/F3 cells; test: Ba/F3 proliferation assay, KRAS G12C; assay type: cell-based; details: Mus musculus, BaF3, 72 h, AlamarBlue
Procedure, shortened: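 Cells: murine Ba/F3 transduced with mutant KRAS by retrovirus, selected with 1 μg/mL puromycin, then weaned off IL-3. Compound exposure in duplicate, followed by AlamarBlue viability staining and curve fitting.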

[4] = Solubility measurement (DMSO solution method), McIlvaine buffer pH 4.5 or 6.8; assay type: physicochemical; details: aqueous buffer, kinetic from dmso stock, DMSO stock diluted to 250 μM, 24 h shaking at ambient temperature
Procedure, shortened: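 Filtrate concentration by LC-UV, calibrated to a known-concentration reference dissolved completely in acetonitrile/water (1:1). Samples came from 250 µM final dilutions of DMSO stock in pH 4.5 or 6.8 McIlvaine buffer, shaken 24 h at ambient temperature, then filtered.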

[5] = McIlvaine buffer pH 4.5, read-out: solubility pH 4.5
[6] = McIlvaine buffer pH 6.8, read-out: solubility pH 6.8

IC50 [1] | IC50 [2] | IC50 [3] | solubility at 24 h [4, 5] | solubility at 24 h [4, 6] | SMILES
354 nM | 149 nM | 613 nM | > 147 µg/mL | < 1 µg/mL | C[C@H](Oc1cc(N2CCN(C)C3(CC3)C2)nc(-c2onc3c2CCC[C@@]32CCCc3sc(N)c(C#N)c32)n1)[C@@H]1C[C@@H](F)CN1C [I-39]
109 nM | 1380 nM | 5 nM | > 194 µg/mL | 62 µg/mL (≈ 92.6 µM) | C[C@H](Oc1cc(-n2ccc(C(=O)NC3(C)COC3)n2)nc(-c2noc3c2CCC[C@@]32CCCc3sc(N)c(C#N)c32)n1)[C@@H]1CCCN1C [II-26]
1650 nM | 10300 nM | 18 nM | > 114 µg/mL | 82 µg/mL (≈ 147 µM) | C[C@H](Oc1cc(-n2nccn2)nc(-c2onc3c2CCC[C@@]32CCCc3sc(N)c(C#N)c32)n1)[C@@H]1CCCN1C [I-29]
304 nM | 297 nM | 233 nM | > 137 µg/mL | 118 µg/mL (≈ 192 µM) | C[C@H](Oc1cc(N2CCN(C)C3(CC3)C2)nc(-c2onc3c2CCC[C@@]32CCCc3sc(N)c(C#N)c32)n1)[C@@H]1CCCN1C [I-41]
720 nM | 5070 nM | 35 nM | > 133 µg/mL | < 1 µg/mL | C[C@H](Oc1cc(-c2cnn(C)n2)nc(-c2noc3c2CCC[C@@]32CCCc3sc(N)c(C#N)c32)n1)[C@@H]1C[C@@H](F)CN1C [II-28]
1220 nM | 2740 nM | 50 nM | > 150 µg/mL | > 150 µg/mL | C[C@H](Oc1nc(-c2noc3c2CCC[C@@]32CCCc3sc(N)c(C#N)c32)cc(N2C[C@H](C)N[C@@H](C)C2)n1)[C@@H]1CCCN1C [II-46]
554 nM | 1000 nM | 170 nM | > 346 µg/mL | > 306 µg/mL | C[C@H](Oc1cc(N2C[C@H](C)N(C)[C@@H](C)C2)nc(-c2onc3c2CCC[C@@]32CCCc3sc(N)c(C#N)c32)n1)[C@@H]1CCCN1C [I-43]
972 nM | 811 nM | 844 nM | > 143 µg/mL | > 135 µg/mL | C[C@H](Oc1cc(N2C[C@@H](N(C)C)[C@@H](O)C2)nc(-c2noc3c2CCC[C@@]32CCCc3sc(N)c(C#N)c32)n1)[C@@H]1CCCN1C [II-10]
66 nM | 4570 nM | 9 nM | > 150 µg/mL | > 141 µg/mL | C[C@H](Oc1cc(-c2ccn(C[C@@H](C)O)n2)nc(-c2onc3c2CCC[C@@]32CCCc3sc(N)c(C#N)c32)n1)[C@@H]1CCCN1C [I-30]
315 nM | 32 nM | 280 nM | > 148 µg/mL | > 86 µg/mL | C[C@H](Oc1cc(N2CCNC3(CC3)C2)nc(-c2onc3c2CCC[C@@]32CCCc3sc(N)c(C#N)c32)n1)[C@@H]1C[C@@H](F)CN1C [I-45]
2160 nM | 273 nM | 345 nM | > 173 µg/mL | > 176 µg/mL | C[C@H](Oc1cc(N2CCNC3(CCC3)C2)nc(-c2onc3c2CCC[C@@]32CCCc3sc(N)c(C#N)c32)n1)[C@@H]1CCCN1C [I-3]
63 nM | 891 nM | 3 nM | 124 µg/mL (≈ 189 µM) | 73 µg/mL (≈ 111 µM) | C[C@H](Oc1cc(-n2ccc(C(=O)NC3COC3)n2)nc(-c2noc3c2CCC[C@@]32CCCc3sc(N)c(C#N)c32)n1)[C@@H]1CCCN1C [II-25]
51 nM | 1390 nM | 4 nM | 19 µg/mL (≈ 32.2 µM) | < 1 µg/mL | C[C@H](Oc1cc(-n2ccsc2=O)nc(-c2noc3c2CCC[C@@]32CCCc3sc(N)c(C#N)c32)n1)[C@@H]1CCCN1C [II-135]
1060 nM | 3450 nM | 92 nM | > 170 µg/mL | 44 µg/mL (≈ 75.5 µM) | C[C@H](Oc1cc(-c2ccc(N)nc2)nc(-c2onc3c2CCC[C@@]32CCCc3sc(N)c(C#N)c32)n1)[C@@H]1CCCN1C [I-25]
